We go through one molecule from article PMC12491701, “Discovery of an APP-selective BACE1 inhibitor for Alzheimer's disease” (Neurotherapeutics, 2025).

Data set [1] relates to CHO-7W cells expressing wildtype human APP. Nature of the data set: sAPPβ and Aβ1-42 production in CHO-7W cells (AlphaLISA). The format is cell-based, Chinese hamster. On the procedure: Culture Media was collected and frozen. Media was assayed using an AlphaLISA for Aβ1-42 (Perkin Elmer catalog # AL276C), sAPPα (R&D Systems catalog # AF1168 conjugated with Perkin Elmer acceptor beads catalog # 6772001 + 2B3 antibody from IBL catalog # 11088 biotinylated), and sAPPβ (Perkin Elmer AL276-acceptor + IBL catalog # 18957 biotinylated). For the assay, 2 μL of diluted or undiluted sample was added to a 384 well plate, followed by 2 μL of the respective antibody mixture. This was incubated for 1 h. Afterwards, 2 μL of donor beads was added to each well, followed by a 30-min incubation in the dark, after which the signal was read.
Background: Alpha assays give light when donor and acceptor beads are brought close together.

The next data set is described as follows: Pharmacokinetics in mice. The following applies: mice. The data set is classed as in vivo, mouse. On the procedure:
Wildtype or non-transgenic (NTg) C57Bl6 mice or Sprague-Dawley rats were dosed by oral (gavage) or subcutaneous (SQ) injection at 10 or 30 mg/kg, and animals were euthanized 1, 2, 6, and 8 h after administration by ketamine/xylazine over-anesthesia, in rats, CSF was also collected, followed by transcardial collection of blood for isolation of plasma and saline perfusion. Brain tissue was collected post-mortem for assessment of compound levels and biomarkers.
Analyses of compound levels in PK studies were performed in the UCLA Pasarow Mass Spectrometry Lab (PMSL; Julian Whitelegge, Ph.D., Director). Tissues were homogenized in a bead beater using 5 vol of ice-cold 80 % acetonitrile (1/5; mg of brain/μL of 80 % ACN). Plasma analytes were extracted using 4 vol of ice-cold acetonitrile (1/4; μL of plasma/μL of 100 % ACN). Solutions were clarified by centrifugation (16,000×g, 5 min) and the supernatants were transferred to new tubes and lyophilized. Samples were reconstituted in 100 μL of 50/50/0.1 (Water/Acetonitrile/Formic Acid) prior to analysis via liquid chromatography-tandem mass spectrometry (LC-MS/MS).
An internal standard (IS) was added to every sample to account for compound loss during sample processing. Standards were made in drug naïve plasma and tissue lysates with increasing amounts of analyte (S1, S2: 0 pmol/S3, S4: 1 pmol/S5, S6: 10 pmol/S7, S8: 100 pmol, S9, S10: 1000 pmol). The standard curve was made by plotting the known amount of analyte per standard vs. the ratio of measured chromatographic peak areas corresponding to the analyte over that of the IS (analyte/IS). The trendline equation was then used to calculate the absolute concentrations of each compound in plasma and tissue.
The targeted LC-MS/MS assay was developed using the multiple reaction monitoring (MRM) acquisition method on a 6460 triple quadrupole mass spectrometer (Agilent Technologies) coupled to a 1290 Infinity HPLC system (Agilent Technologies) with a Phenomenex analytical column (Kinetex 1.7 μm C18 100 Å 100 × 2.1 mm). The HPLC method utilized a mixture of solvent A (99.9/0.1 Water/Formic Acid) and solvent B (99.9/0.1 Acetonitrile/Formic Acid) and a gradient was use for the elution of the compounds (min/%B: 0/1, 3/1, 19/99, 20/1, 30/1). Two fragment ions were monitored at specific LC retention times to ensure specificity and accurate quantification in the complex biological samples. The normalized chromatographic peak areas were determined by taking the ratio of measured chromatographic peak areas corresponding to the compound over that of the internal standard (Analyte/IS).
The Tmax, Cmax, brain-to-plasma ratios and brain levels were then calculated using PK Solutions software (SummitPK).

In the next data set the target is T1, BACE1 cleavage of NRG1 (Homo sapiens, UniProt P56817).
T1 construct: with or without full-length wild-type BACE1; expressed in transfected cells; host or cells: HEK293
T1 sequence (P56817 46-501): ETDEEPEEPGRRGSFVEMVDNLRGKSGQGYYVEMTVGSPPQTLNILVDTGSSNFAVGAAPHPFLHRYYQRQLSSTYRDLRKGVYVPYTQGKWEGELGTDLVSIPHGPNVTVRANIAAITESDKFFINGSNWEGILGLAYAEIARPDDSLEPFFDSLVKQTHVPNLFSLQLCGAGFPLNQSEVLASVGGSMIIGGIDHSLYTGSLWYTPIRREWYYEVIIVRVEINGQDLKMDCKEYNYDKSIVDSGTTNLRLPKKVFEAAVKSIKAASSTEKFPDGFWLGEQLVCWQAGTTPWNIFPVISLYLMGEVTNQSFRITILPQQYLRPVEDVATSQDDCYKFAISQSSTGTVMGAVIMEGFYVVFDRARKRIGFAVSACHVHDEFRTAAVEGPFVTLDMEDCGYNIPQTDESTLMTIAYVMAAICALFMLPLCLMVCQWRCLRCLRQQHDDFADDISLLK
Nature of the data set: SEAP-NRG assay. The data set is classed as cell-based.

In a further data set the target is eAPP (Homo sapiens, UniProt P05067). Nature of the data set: APP binding by surface plasmon resonance (SPR). The following applies: SPR, in words. In general terms: SPR reads the build-up and loss of mass on a sensor chip optically.
Sequence of eAPP (P05067 18-701): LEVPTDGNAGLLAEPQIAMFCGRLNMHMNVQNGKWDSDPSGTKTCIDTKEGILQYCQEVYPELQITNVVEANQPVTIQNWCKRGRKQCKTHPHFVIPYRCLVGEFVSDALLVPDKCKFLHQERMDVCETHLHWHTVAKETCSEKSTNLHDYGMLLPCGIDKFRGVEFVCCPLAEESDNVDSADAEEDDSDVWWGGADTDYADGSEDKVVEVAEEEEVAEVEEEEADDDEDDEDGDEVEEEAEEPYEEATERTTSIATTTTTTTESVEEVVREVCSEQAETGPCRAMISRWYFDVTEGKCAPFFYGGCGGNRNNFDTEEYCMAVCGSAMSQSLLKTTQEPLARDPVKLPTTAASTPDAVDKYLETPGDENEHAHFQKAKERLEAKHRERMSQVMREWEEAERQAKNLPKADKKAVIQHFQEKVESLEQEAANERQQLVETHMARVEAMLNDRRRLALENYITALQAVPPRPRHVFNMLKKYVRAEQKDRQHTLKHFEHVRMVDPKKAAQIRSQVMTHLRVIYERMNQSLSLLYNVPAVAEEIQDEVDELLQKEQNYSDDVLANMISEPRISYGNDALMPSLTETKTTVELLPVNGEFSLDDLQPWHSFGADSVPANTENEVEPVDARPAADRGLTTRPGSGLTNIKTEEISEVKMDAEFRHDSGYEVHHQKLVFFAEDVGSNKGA

Protocol for BACE1 cleavage of NRG1: A cDNA construct encoding a human placental secreted alkaline phosphatase (SEAP)-NRG1 (pAPtag5-NRG1-β1) fusion protein was transfected in human embryonic kidney (HEK293) cells in a 6-well format with or without full-length wild-type BACE1 using Lipofectamine 2000 (Invitrogen) as described previously [27]. After transfection, the medium was replaced with DMEM containing the test compound at 10, 5, 1, 0.1, and 0.01 ​μM as well as 10 ​% heat-inactivated fetal bovine serum (FBS), then incubated for 24 ​h. SEAP activity was measured in the conditioned medium.
Protocol for eAPP: The interaction of FAH3, 17 and 65 were evaluated using the SPR protocol described previously in Descamps et al., [26].
For these pilot experiments eAPP as described in Descamps et al (26) is crosslinked to a the CM5 Biacore chip. FAH3 at various concentration was used in the flow through the chip, and the plasmon resonance signal was determined using a Biacore T100. The raw data uncorrected for contribution of running buffer is fit to equilibrium binding data and corrected for the contribution of the running buffer to
For FAH17 and FAH65-APP binding was determined using SPR to determine competition with BSA that non-specifically binds to the eAPP-Biacore chip.

For orientation: Cmax means the peak of the concentration-time curve. In general, EC50 refers to the concentration that produces a half-maximal response. Lower therefore signals an effect from little substance. Broadly, the IC50 is the concentration that gives 50% inhibition. High values mean weaker potency in that assay, low ones greater potency in that assay. Regarding `Cc1cc(C2(c3cccc(-c4cncnc4)c3)N=C(N)N(C)C2=O)ccc1OC(F)F` (centres unmarked) [FAH65], the sAPPβ reduction in data set [1] is on record as above 90%. Further, in data set [1] (1 μM, 24-h treatment, in words), the sAPPβ production entry is listed as “decrease”. Moreover, the Aβ1-42 production result in data set [1] (1 μM, in words) is “decrease”. Besides, the peak concentration (Cmax) in “Pharmacokinetics in mice” (C57Bl6, mouse, plasma, oral, 30 mg/kg) was around 50 ng/mL. In addition, in “Pharmacokinetics in mice” (oral, 30 mg/kg), the “brain Cmax” value was 74 ng/g and the “time of brain Cmax” value is 1 h. Also, in “Pharmacokinetics in mice” (subcutaneous (SQ), 10 or 30 mg/kg), the “compound levels in plasma” value is on record as “over 3000 ng/mL”. The molecule further had an EC50 on BACE1 cleavage of NRG1 (SEAP-NRG1, HEK293) above 10000 nM. Also, the concentration for half-maximal inhibition (IC50) against BACE1 cleavage of NRG1 (Table S1) was 2000 nM. Also, on BACE1 cleavage of NRG1 (ratio), the “substrate selectivity IC50 NRG1/IC50 APP” value is recorded as above 200. At eAPP, the “binding to eAPP” value is listed as “relative to BSA but no KD”.
